The supplement of paper PMC10307832

How the values were obtained:
Experiment in all cases: relative viability (nuclei count vs DMSO), 5 days (fraction); higher = more cells survive
Dinaciclib + OSI-027 = compound: CCc1cnn2c(NCc3ccc[n+]([O-])c3)cc(N3CCCC[C@H]3CCO)nc12 [Dinaciclib] + COc1cccc2cc(-c3nc([C@H]4CC[C@H](C(=O)O)CC4)n4ncnc(N)c34)[nH]c12 [OSI-027] (partner 0.5 µM)
How it was run: (§1)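 Lung cancer cell lines in 1536-well plates were dosed by pin tool the day after seeding, either with one drug alone or with a fixed anchor-drug dose plus five library-drug doses (not always all listed) in √10 steps. After 5 days, cells were fixed and their nuclei stained in one step (final 0.05% Triton X-100, 1% formaldehyde, 1 ug/ml Hoechst), then counted on 4× images. Relative viability is the nuclei count in treated wells divided by that in vehicle wells. Values are medians of duplicate plates.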

Dinaciclib + Trametinib = compound: CCc1cnn2c(NCc3ccc[n+]([O-])c3)cc(N3CCCC[C@H]3CCO)nc12 [Dinaciclib] + CC(=O)Nc1cccc(-n2c(=O)n(C3CC3)c(=O)c3c(Nc4ccc(I)cc4F)n(C)c(=O)c(C)c32)c1 [Trametinib] (partner 0.02 µM)
How it was run: as §1

Dinaciclib + Luminespib = compound: CCc1cnn2c(NCc3ccc[n+]([O-])c3)cc(N3CCCC[C@H]3CCO)nc12 [Dinaciclib] + CCNC(=O)c1noc(-c2cc(C(C)C)c(O)cc2O)c1-c1ccc(CN2CCOCC2)cc1 [Luminespib] (partner 0.01 µM)
How it was run: as §1

Dinaciclib + Vorinostat = compound: CCc1cnn2c(NCc3ccc[n+]([O-])c3)cc(N3CCCC[C@H]3CCO)nc12 [Dinaciclib] + O=C(CCCCCCC(=O)Nc1ccccc1)NO [Vorinostat] (partner 1 µM)
How it was run: as §1

Dinaciclib + AZD7762 = compound: CCc1cnn2c(NCc3ccc[n+]([O-])c3)cc(N3CCCC[C@H]3CCO)nc12 [Dinaciclib] + NC(=O)Nc1cc(-c2cccc(F)c2)sc1C(=O)N[C@H]1CCCNC1 [AZD7762] (partner 0.2 µM)
How it was run: as §1

Row | Cell Line | relative viability (Dinaciclib + OSI-027; first compound 0.009487 µM) | relative viability (Dinaciclib + OSI-027; first compound 0.03 µM) | relative viability (Dinaciclib + OSI-027; first compound 0.09487 µM) | relative viability (Dinaciclib + OSI-027; first compound 0.3 µM) | relative viability (Dinaciclib + Trametinib; first compound 0.009487 µM) | relative viability (Dinaciclib + Trametinib; first compound 0.03 µM) | relative viability (Dinaciclib + Trametinib; first compound 0.09487 µM) | relative viability (Dinaciclib + Trametinib; first compound 0.3 µM) | relative viability (Dinaciclib + Luminespib; first compound 0.009487 µM) | relative viability (Dinaciclib + Luminespib; first compound 0.03 µM) | relative viability (Dinaciclib + Luminespib; first compound 0.09487 µM) | relative viability (Dinaciclib + Luminespib; first compound 0.3 µM) | relative viability (Dinaciclib + Vorinostat; first compound 0.009487 µM) | relative viability (Dinaciclib + Vorinostat; first compound 0.03 µM) | relative viability (Dinaciclib + Vorinostat; first compound 0.09487 µM) | relative viability (Dinaciclib + Vorinostat; first compound 0.3 µM) | relative viability (Dinaciclib + AZD7762; first compound 0.009487 µM) | relative viability (Dinaciclib + AZD7762; first compound 0.03 µM) | relative viability (Dinaciclib + AZD7762; first compound 0.09487 µM) | relative viability (Dinaciclib + AZD7762; first compound 0.3 µM)
1 | 201T | 0.801 | 0.297 | 0.119 | 0.183 | 0.821 | 0.675 | 0.249 | 0.228 | 1.2 | 0.342 | 0.24 | 0.256 | 1.24 | 0.74 | 0.214 | 0.213 | 0.79 | 0.844 | 0.252 | 0.228
2 | A-427 | 0.385 | 0.143 | 0.0922 | 0.0796 | 0.624 | 0.117 | 0.109 | 0.115 | 0.554 | 0.0941 | 0.0692 | 0.0782 | 0.699 | 0.216 | 0.111 | 0.117 | 0.75 | 0.161 | 0.117 | 0.102
3 | ABC-1 | 0.329 | 0.123 | 0.104 | 0.118 | – | – | – | – | 0.581 | 0.209 | 0.173 | 0.178 | 0.845 | 0.419 | 0.297 | 0.246 | 0.87 | 0.642 | 0.189 | 0.178
4 | BEN | 0.289 | 0.264 | 0.191 | 0.198 | 1.44 | 0.981 | 0.349 | 0.291 | 0.323 | 0.221 | 0.174 | 0.133 | 0.67 | 0.63 | 0.345 | 0.308 | 0.894 | 0.566 | 0.217 | 0.287
5 | CAL-12T | 0.235 | 0.136 | 0.118 | 0.124 | 0.187 | 0.0992 | 0.122 | 0.11 | 0.133 | 0.085 | 0.0815 | 0.0961 | 0.511 | 0.0992 | 0.1 | 0.131 | 0.565 | 0.187 | 0.14 | 0.183
6 | COR-L23 | 0.608 | 0.0953 | 0.0761 | 0.0902 | 0.508 | 0.111 | 0.0846 | 0.0705 | 0.226 | 0.0887 | 0.0655 | 0.0681 | 0.41 | 0.0812 | 0.087 | 0.0797 | – | – | – | –
7 | COR-L 105 | 0.51 | 0.232 | 0.224 | 0.234 | 0.41 | 0.327 | 0.35 | 0.329 | 0.509 | 0.214 | 0.229 | 0.169 | 0.679 | 0.444 | 0.302 | 0.302 | – | – | – | –
8 | ChaGo-K-1 | 0.499 | 0.186 | 0.128 | 0.119 | 0.856 | 0.25 | 0.14 | 0.102 | 0.342 | 0.182 | 0.123 | 0.0984 | 0.803 | 0.197 | 0.139 | 0.112 | 0.904 | 0.389 | 0.131 | 0.117
